The nature of series [1]: Phase 1b maximal use study: plasma pharmacokinetics of SNA-120. The class given is in vivo, human. The settings on record: any post-baseline timepoint; no detectable levels. The protocol:
This is a multicenter, open-label, Phase 1b study designed to evaluate the PK with maximal use of 0.5% w/w SNA-120 ointment (see Table 1), as measured by circulating plasma levels of SNA-120 in men and women aged ≥18 years who have at least moderate (e.g., moderate to severe) pruritus associated with at least moderate (e.g., moderate to severe) psoriasis vulgaris (PV) covering at least 20% body surface area (BSA). SNA-120 was evaluated as a topical, non-steroidal ointment to treat itch (pruritus) associated with psoriasis. SNA-120 was designed to achieve high local drug concentration in the target tissue while minimizing systemic exposure for patients. SNA-120 directly targets the peripheral itch pathway in the psoriatic plaque.
Approximately 30 eligible subjects will receive 0.5% w/w SNA-120 ointment (2 mg/cm^2) proportional to approximately 35 mg active drug at each application for a subject with at least 20% BSA affected, administered twice daily over 4 weeks to the indicated areas in the Treatment Area. […]
Pharmacokinetics—Blood: Serial blood draws for PK analysis will be obtained approximately the same time of day for Study Days 1 and 29. […] On Days 1 and 29, blood draws will be collected after each nominal ECG extraction time point; the actual times of collection will be recorded in the eCRF. […]

Series [2] in a line: Validation of HPLC methods (SNA-120 assay and related substances, benzyl alcohol). The settings on record: benzyl alcohol in ointment sample solutions stored at ambient conditions. An excerpt:
An HPLC method was developed for the detection of assay and related substances of SNA-120 drug product and placebo. The following method validation parameters were challenged: specificity; linearity; accuracy; precision (system and repeatability); range; stability of test solutions; limit of detection and quantitation; system suitability.
An HPLC method was developed for the detection of Benzyl Alcohol in SNA-120 drug product and placebo. The following method validation parameters were challenged: specificity; linearity; accuracy; precision (system and repeatability); range; stability of test solutions; system suitability.

With `C[C@]12O[C@H](C[C@]1(O)C(=O)O)n1c3ccccc3c3c4c(c5c6ccccc6n2c5c31)CNC4=O` [Lot K252b], the “Plasma levels of K252b” value in series [1] is below 0.250 ng/mL.

On to `OCc1ccccc1` [benzyl alcohol], for which, in series [2], the “Stability of test solutions: samples stable for up to” value is reported as “ambient conditions. Samples are stable for up to 2 days”.

The values above are taken from patent US20190209472A1, “FORMULATIONS FOR DERMAL DELIVERY OF POLYMER CONJUGATES OF INDOLOCARBAZOLE COMPOUNDS WITH REDUCED EXPOSURE” (Sienna Biopharmaceuticals, Inc., priority 2017, published 2019).
